According to US20190030009A1, “COMPOUNDS AND COMPOSITIONS FOR THE TREATMENT OF CRYPTOSPORIDIOSIS” (Novartis AG, priority 2016, published 2019):

Assays:
[1] = Cytotoxicity against HepG2; type: cell-based; details: human, HepG2 cells (ATCC HB-8065), 5 days exposure
In short: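 Cells seeded at 10^5 per well, held 24 h at 37 °C, then exposed to two-fold serial dilutions of compound for 5 days. Viability read with Cell Proliferation Kit II (XTT); values reported as CC50.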

[2] = tested on: C. parvum; test: High content imaging assay, C. parvum infected HCT-8 cells; type: cell-based; details: Cryptosporidium parvum, percentage of infected HCT-8 cells, 48 hours treatment, read-out: Cp HCl IC50
Experimental: (§1) Human ileocecal colorectal adenocarcinoma cells (HCT-8 [HRT-18] ATCC, CCL-34) were maintained in T-175 flasks (Corning, 431080) in complete growth medium (RPMI-1640 medium (Gibco, 11875) supplemented with 10% heat-inactivated horse serum (Gibco, 26050), 1×MEM non-essential amino acids (Gibco, 11140), 10 mM HEPES (Gibco, 15630), 100 units/mL penicillin, and 100 units/mL streptomycin) at 37° C. and 5% CO2 in a humidified incubator. Cultures were passaged twice weekly using 10 mL of 1×Phosphate-Buffered Saline (PBS) without Ca^2+ and Mg^2+ (Gibco, 20012) for washing and 3-5 mL per T-175 flask of TrypLE Express Enzyme (Gibco, 12604) for dissociation of adherent cells.
Cryptosporidium parvum oocysts purchased from the Sterling Laboratory, University of Arizona (Iowa isolate) were purified from infected calf feces using discontinuous sucrose and cesium chloride centrifugation gradients and stored in PBS solution containing 0.01% Tween 20, 100 units/mL penicillin and 100 units/mL gentamicin.
(§2) Excystation and infection protocols were developed following established methods with some modifications (Gut & Nelson, 1999, Upton et aL, 1995, Bessoff et aL, 2013). Briefly, oocysts were primed in 1 mL of 10 mM hydrochloric acid in 1× Hank's Balanced Salt Solution (HBSS) (Gibco, 14025) for 10 minutes with agitation at 1000 rpm, 37° C. on an Eppendorf thermomixer, then washed twice with 1 mL of room temperature non-acidic 1× HBSS by centrifugation at 13,000 rpm for 3 minutes at 25° C. Primed oocysts were further excysted at a concentration of 1×10^6 oocysts/μL in parasite infection medium consisting of a pre-warmed and pre-gassed 1:1 formulation of Leibovitz's L-15 medium (Gibco, 11415) and UltraCULTURE medium (Lonza, 12-725F) supplemented with 2 mM sodium taurocholate (Sigma, 86339-1), 10% heat-inactivated horse serum, and 200 μM L-ascorbic acid (Sigma, 95210) at 25° C. for 10 minutes. HCT-8 monolayer cells were infected with excysted cryptosporidium at a specified multiplicity of infection (MOI). All dilutions for subsequent assays were performed in parasite infection medium without sodium taurocholate. Pre-excysted oocysts were enumerated microscopically using a C-Chip disposable hemocytometer (NanoEnTek, DHC-N01).
(§3) Compound powders were dissolved in neat DMSO (Fisher, D4121) to 10 mM and stored at 4° C. prior to dilution into source plates. Dilutions were carried out using a Microlab STAR liquid handler (Hamilton) to obtain compound source plates containing the ten-point or eight-point three fold dilutions starting from 10 mM in duplicates. Source plates were stored at 4° C. prior to spotting into assay plates. Before administration, all compound source plates were equilibrated to room temperature. A specified volume of compounds from source plate were spotted to assay plate using an Echo Acoustic liquid handler (LABCYTE, 550) so that the final DMSO concentration was less than 0.5%. Each assay plate a specified number of DMSO-treated negative control wells and a well-studied potent active compound at 100 nM as positive control. As a quality control, all positive and negative-control wells were used to calculate a Z′-value and signal to noise ratio (S:N) for each plate.
Imaging assays were developed following established Cryptosporidium spp labeling and in vitro infection models with some modifications (Bessoff et aL, 2013, Gut & Nelson, 1999). Briefly, 2×10^4 HCT-8 cells per well were seeded into 384-well, flat black clear-bottom OPERA assay plates (Greiner, 789071-G) at 20 μL per well in complete growth medium using a Multidrop Combi liquid handler (ThermoScientific, 5840300) and standard tube dispensing cassette (ThermoScientific, 24072670) and incubated for 24 hours at 37° C. The HCT-8 cells were infected with 10 μL per well of 1×10^4 excysted C. parvum oocysts (host to parasite MOI of 1:0.5) or 10 μL per well of 4×10^4 excysted C. hominis oocysts (MOI 1:2) in parasite infection medium using the Multidrop and incubated at 37° C. […]

[3] = tested on: Cryptosporidium parvum; test: Cytopathic effect (CPE) based assay, C. parvum infected HCT-8 cells; details: HCT-8 host cell viability (CellTiter-Glo), 48 hours treatment, read-out: Cp CPE EC50
In short: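 HCT-8 cells were batch-infected with excysted C. parvum (Iowa isolate) oocysts at MOI 1:2 (host:parasite) for 3 h at 37 °C, then seeded and incubated 24 h before compound addition. Compounds were given as 3-fold dilution series (final DMSO <0.5%). Host-cell loss (cytopathic effect) was read as viability with CellTiter-Glo.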

[4] = tested on: Cryptosporidium hominis; test: Cytopathic effect (CPE) based assay, C. hominis infected HCT-8 cells; details: HCT-8 host cell viability (CellTiter-Glo), 48 hours treatment, read-out: Ch CPE EC50
Experimental: as §1
Cryptosporidium hominis oocysts were purchased from the Tufts University Cummings School of Veterinary Medicine (courtesy of Dr. Saul Tzipori). C. hominis oocysts were purified from infected gnotobiotic piglet feces and stored in PBS solution containing 0.01% Tween-20, 100 units/mL penicillin and 100 units/mL gentamicin. C. parvum and C. hominis oocysts less than three months old from the date of shedding were used in infection experiments.
as §2, §3
Cryptosporidium spp are obligate-intracellular parasites that infect intestinal epithelial cells and the host cell is killed upon parasite egress. […] The loss of epithelial cells is due to both rapid parasite invasion/multiplication/egress and also pro-inflammatory immune response (Adams et al., 1994, Griffiths et al., 1994). We have observed a consistent cytopathic effect (CPE) in HCT-8 cells with C. spp infection the loss of viability of the host cells using CellTiter-Glo reagent.
Confluent HCT-8 cells in T-175 flasks were directly infected with excysted oocysts at an MOI (host to parasite) of 1:2 for C. parvum and 1:4 for C. hominis. […]

[5] = target: C. parvum PI(4)K (Cryptosporidium parvum, UniProt Q5CVD3); test: CpPI(4)K enzymatic assay (Transcreener ADP2 FP); type: biochemical
Chain of C. parvum PI(4)K (Q5CVD3 entry or part of it): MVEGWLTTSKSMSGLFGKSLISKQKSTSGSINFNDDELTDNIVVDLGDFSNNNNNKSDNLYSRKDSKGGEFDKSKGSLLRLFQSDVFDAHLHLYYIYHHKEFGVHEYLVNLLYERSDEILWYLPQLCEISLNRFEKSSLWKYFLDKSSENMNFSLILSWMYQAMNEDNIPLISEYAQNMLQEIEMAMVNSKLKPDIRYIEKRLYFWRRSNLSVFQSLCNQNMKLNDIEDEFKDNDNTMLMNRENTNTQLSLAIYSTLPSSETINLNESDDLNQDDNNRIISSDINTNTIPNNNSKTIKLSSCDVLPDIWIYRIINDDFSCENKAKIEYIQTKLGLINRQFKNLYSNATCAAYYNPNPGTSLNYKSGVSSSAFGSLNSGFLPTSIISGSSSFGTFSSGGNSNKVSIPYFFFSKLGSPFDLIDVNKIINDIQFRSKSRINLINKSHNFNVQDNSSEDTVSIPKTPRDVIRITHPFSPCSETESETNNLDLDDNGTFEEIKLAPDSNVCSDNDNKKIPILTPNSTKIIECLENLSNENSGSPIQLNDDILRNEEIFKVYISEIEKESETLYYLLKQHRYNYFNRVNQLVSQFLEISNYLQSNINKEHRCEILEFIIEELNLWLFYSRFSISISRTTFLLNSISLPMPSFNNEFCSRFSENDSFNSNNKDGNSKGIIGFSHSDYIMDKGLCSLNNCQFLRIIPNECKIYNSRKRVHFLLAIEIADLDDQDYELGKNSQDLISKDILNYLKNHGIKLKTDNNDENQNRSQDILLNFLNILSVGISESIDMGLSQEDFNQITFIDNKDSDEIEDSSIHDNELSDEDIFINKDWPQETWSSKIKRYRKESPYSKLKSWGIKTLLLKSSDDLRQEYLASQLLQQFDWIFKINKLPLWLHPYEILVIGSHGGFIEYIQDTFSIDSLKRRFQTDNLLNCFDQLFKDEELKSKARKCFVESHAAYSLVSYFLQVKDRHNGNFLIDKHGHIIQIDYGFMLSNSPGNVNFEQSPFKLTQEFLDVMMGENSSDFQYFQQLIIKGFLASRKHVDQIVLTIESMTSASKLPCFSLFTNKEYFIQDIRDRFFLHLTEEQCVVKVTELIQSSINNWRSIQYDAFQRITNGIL
Source text: The full-length coding sequence of C. parvum PI(4)K (cgd8_4500, 1114 amino acids) was codon-optimized for baculovirus expression, synthesized and cloned into pFastBac-HTb (Invitrogen 10584-027) in frame with the amino-terminal polyhistidine tag using the BamHI and Hindlll restriction sites. Recombinant pFastBacHTb-CpPI(4)K bacmid clones were generated by site-specific transposition in E. coli DH10Bac (Invitrogen 10361-012). The bacmid sequence was confirmed by direct DNA sequencing to confirm a lack of mutations across the whole gene. The subsequent steps for bacmid isolation, transfection and selection of the recombinant viruses were performed according to the manufacturer's protocol (Bac-to-Bac system #10359, Invitrogen).
SF9 cells, cultured in SF-900 III serum-free medium, were transfected with recombinant baculovirus at 1/200 (v/v) and incubated at 27° C. for 72 h. The pellets were collected after centrifugation and re-suspended in cell lysis buffer (20 mM Tris-HCl, pH 7.5, 300 mM NaCl, 1 mM DTT, 20 mM imidazole, 0.01% Triton X-100 and 1× complete protease inhibitor cocktail without EDTA (Roche Diagnostics 04693116001)). The cell suspension was lysed by sonication and the clarified supernatant was loaded onto a 1 ml HisTrap affinity column (GE Healthcare) pre-equilibrated with buffer A (20 mM Tris-HCl, pH 7.5, 300 mM NaCl, 1 mM DTT, 20 mM Imidazole, and 1× complete protease inhibitor cocktail without EDTA). The column was washed with buffer B (buffer A containing 45 mM imidazole) and the bound protein of interest was eluted with buffer C (buffer A with 90 mM imidazole). The fractions containing CpPI(4)K were pooled, concentrated using Amicon Ultra-15 and purified by a gel-filtration column (Hi-Load 26/60 Superdex 200, GE Healthcare) equilibrated with 20 mM Tris, pH 7.5, 300 mM NaCl, 1 mM DTT and 1× protease inhibitor cocktail without EDTA. The concentrations of the purified protein (Mw 132.39 kda) was determined by using the protein molar extinction coefficient (ε280 nm=133,810 M^−1 cm^−1). Aliquots were flash frozen in liquid nitrogen and immediately stored at −80° C.
The CpPI(4)K enzymatic assay was performed as described earlier with a some modifications (McNamara et al., 2013). Briefly, L-α-phosphatidylinositol (Avanti Polar Lipid 840046), dissolved in 3% n-octylglucoside (Roche Diagnostics 10634425001), was used as the lipid substrate for the PI(4)K activity assay. CpPI(4)K was assayed using Transcreener ADP2 FP detection kit (BellBrook 3010) in a black, solid 384-well plate (Corning 3575). The final assay volume was 10 μl and contained 3 nM of the respective CpPI(4)K construct in 10 mM Tris, pH 7.5, 1 mM DTT, 3 μM ATP, 5 mM Mn2+, 0.05% Triton X-100 and 10 μM phosphatidylinositol/octylglucoside. The enzyme reaction was performed for 50 minutes at room temperature and was stopped by adding 10 μl of detection mix containing 1× stop buffer (50 mM HEPES, pH7.5, 400 mM NaCl, 20 mM EDTA, and 0.02% Brij-35), 2 nM AMP Alexa Fluor 633 tracer, and 20 μg ml^−1 ADP antibody. Fluorescence polarization measurements were performed on the Infinite M1000 plate reader (Tecan) with λex=635 nm and λem=680 nm (20-nm bandwidth). IC50 values were calculated using Graphpad Prism software.
The inhibitory concentration (IC50) of selected compounds on the C. parvPI(4)K activity is provided in the third column [Cp_PI4K_enz IC50 (μM)] of Table II.

IC50 [2] [nM]	SMILES	CC50 at 5 days [1] [µM]	EC50 [3] [nM]	EC50 [4] [nM]	IC50 [5] [nM]
8	CNC(=O)c1ccc(-c2cnn3ccc(C(=O)N(C)c4ccc(C(F)(F)F)cc4)cc23)cc1 [Example 103]	8.06	7		
58	CN(C(=O)c1ccn2ncc(-c3ccc(C(N)=O)cc3)c2c1)c1ccc(C#N)cn1 [Example 32]	15.8	93	119	
	CN(C(=O)c1ccn2ncc(-c3ccc(C(N)=O)cc3)c2c1)c1ccc(C#N)cc1 [Example 19]	5.91	37		3
	CNC(=O)c1ccc(-c2cnn3ccc(C(=O)N(c4ccc(C#N)cn4)C(C)(C)C)cc23)cc1 [Example 119]	20.1	1930	1940	
	CNC(=O)c1ccc(-c2cnn3ccc(C(=O)N(c4ccc(C#N)cn4)C4CCCC4)cc23)cc1 [Example 126]	22.1	410		71
